Assay results published in ChEMBL document CHEMBL1201862, “PubChem BioAssay data set” (2004).
Activity calls are given as the source filed them.

How the values were obtained:
[1] = molecular target: T1, Cytochrome P450 1A2 (Homo sapiens, UniProt P05177);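 further: PubChem cytochrome P450 panel assay, CYP1A2 panel member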
T1 sequence (P05177 whole entry): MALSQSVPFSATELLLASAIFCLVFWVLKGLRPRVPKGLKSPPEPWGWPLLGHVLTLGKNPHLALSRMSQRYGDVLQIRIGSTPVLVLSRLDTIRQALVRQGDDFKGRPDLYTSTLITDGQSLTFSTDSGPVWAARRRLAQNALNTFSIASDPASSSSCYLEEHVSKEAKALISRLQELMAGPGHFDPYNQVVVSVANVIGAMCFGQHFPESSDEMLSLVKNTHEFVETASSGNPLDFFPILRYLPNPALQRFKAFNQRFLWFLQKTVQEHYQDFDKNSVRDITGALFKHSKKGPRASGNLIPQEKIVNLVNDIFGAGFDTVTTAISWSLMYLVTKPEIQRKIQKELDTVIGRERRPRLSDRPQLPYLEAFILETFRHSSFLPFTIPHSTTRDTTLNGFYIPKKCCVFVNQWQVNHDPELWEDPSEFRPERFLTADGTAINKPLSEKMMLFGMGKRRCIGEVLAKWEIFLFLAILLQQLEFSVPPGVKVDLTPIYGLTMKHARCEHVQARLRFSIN

[2] = molecular target: Cytochrome P450 3A4 (Homo sapiens, UniProt P08684);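 further: CYP3A4 tested as one member of a cytochrome P450 panel screen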
[3] = inhibitors of intracellular T. cruzi replication, confirmation, NIH3T3 host cells, beta-gal luminescence (AID 2044); type: functional, cell-based;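 further: intracellular parasites grown in NIH/3T3 mouse fibroblasts as host cells; luminescent beta-galactosidase reporter signal from transgenic T. cruzi replicating inside host cells; inhibitors lower the luminescence signal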
[4] = cytotoxicity toward NIH3T3 fibroblasts, dose response, counter-screen, cell-based, ATP luminescence, mouse fibroblasts (AID 2010); type: functional;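 further: cells exposed to compound for about 90 hours before reading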
[5] = molecular target: Cytochrome P450 2C19 (Homo sapiens, UniProt P33261); test: Cytochrome panel assay with activity outcomes. Panel member name: p450-cyp2c19 Compounds with AC50 equal or less than 10 uM are considered active; type: functional
[6] = molecular target: Cytochrome P450 2C9 (Homo sapiens, UniProt P11712)
[7] = test system: Streptococcus; test: Group A Streptococcus viability loss, dose response, counter-screen for streptokinase expression inhibitor project, luminescence, BacTiterGlo (AID 1915); type: functional, organism-based;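 further: potency for reduction of bacterial viability or growth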
[8] = test system: Streptococcus sp. 'group A'; test: growth inhibition of control SK(-) GAS strain, dose response, counter-screen for streptokinase expression inhibitor project, luminescence, kanamycin, BacTiterGlo, confirmation (AID 1900); type: functional, organism-based
[9] = inhibitors of SNCA 5'UTR-driven reporter translation, confirmation, H4 neuroglioma cells, luminescence (AID 1988); type: functional, cell-based
[10] = Luminescence Cell-Based Dose Response HTS to Identify Inhibitors of 5'UTR Stem-Loop Driven Prion Protein mRNA Translation in H4 Neuroglioblastoma Cells. [Related pubchem assays: 1827 (Project Summary), 1813 (Primary HTS)]; type: functional

Cytochrome P450 2C19, sequence (P33261 whole entry): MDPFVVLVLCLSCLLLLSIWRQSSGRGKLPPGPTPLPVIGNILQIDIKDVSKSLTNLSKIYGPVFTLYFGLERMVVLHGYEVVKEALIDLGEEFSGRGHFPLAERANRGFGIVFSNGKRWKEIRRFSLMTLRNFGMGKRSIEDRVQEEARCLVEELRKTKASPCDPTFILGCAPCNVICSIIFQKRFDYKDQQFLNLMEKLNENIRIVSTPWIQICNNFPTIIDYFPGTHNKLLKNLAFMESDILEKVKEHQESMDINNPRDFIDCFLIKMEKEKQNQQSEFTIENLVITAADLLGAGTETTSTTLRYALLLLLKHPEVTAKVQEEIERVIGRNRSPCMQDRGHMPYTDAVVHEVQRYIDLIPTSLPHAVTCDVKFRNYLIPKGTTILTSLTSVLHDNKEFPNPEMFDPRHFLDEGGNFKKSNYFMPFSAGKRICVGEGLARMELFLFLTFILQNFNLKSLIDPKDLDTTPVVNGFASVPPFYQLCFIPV
Cytochrome P450 2C9, sequence (P11712 whole entry): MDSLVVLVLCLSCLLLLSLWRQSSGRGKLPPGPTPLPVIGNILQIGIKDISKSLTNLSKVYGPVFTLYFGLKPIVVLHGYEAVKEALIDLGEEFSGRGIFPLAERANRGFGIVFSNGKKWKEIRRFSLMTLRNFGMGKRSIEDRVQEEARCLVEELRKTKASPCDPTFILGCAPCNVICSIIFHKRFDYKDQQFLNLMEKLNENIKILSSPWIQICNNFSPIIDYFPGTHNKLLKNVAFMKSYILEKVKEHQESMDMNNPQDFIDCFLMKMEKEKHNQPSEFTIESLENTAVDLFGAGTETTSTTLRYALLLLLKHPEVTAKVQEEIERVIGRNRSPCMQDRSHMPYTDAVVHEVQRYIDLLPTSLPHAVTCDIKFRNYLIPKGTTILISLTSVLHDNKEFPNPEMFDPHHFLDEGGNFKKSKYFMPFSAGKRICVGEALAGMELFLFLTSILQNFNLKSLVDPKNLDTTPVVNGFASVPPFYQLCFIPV
Cytochrome P450 3A4, sequence (P08684 whole entry): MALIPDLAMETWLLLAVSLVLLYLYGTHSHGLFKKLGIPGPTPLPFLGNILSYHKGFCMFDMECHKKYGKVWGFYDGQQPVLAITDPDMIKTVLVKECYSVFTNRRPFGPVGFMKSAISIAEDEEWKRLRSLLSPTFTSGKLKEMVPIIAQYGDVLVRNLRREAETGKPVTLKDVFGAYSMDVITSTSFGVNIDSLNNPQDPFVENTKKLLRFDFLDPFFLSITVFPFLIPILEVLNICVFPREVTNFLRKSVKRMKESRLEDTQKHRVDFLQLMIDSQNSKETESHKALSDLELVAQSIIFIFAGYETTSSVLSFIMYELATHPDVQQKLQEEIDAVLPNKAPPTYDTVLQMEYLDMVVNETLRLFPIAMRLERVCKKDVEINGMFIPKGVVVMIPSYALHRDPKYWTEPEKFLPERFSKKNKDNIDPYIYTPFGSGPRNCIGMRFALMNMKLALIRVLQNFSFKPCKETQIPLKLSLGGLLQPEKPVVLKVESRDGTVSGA

In the case of NC(=S)SCCC(=O)O, the AC50 [1] is reported as 1.58 µM (inconclusive).
With C=CCNC(=O)c1onc(CSc2ccc(F)cc2)c1C(=O)O the AC50 [2] was 22.4 µM (inconclusive).
In the case of Cc1cc(C)c(C#N)c(SCC(=O)Nc2nnc(-c3ccccc3)s2)n1, the EC50 [3] is reported as > 30 µM (not active) and the EC50 [4] is reported as > 30 µM (not active).
In the case of CC(=O)c1ccc(N2CCN(c3ccc(S(=O)(=O)NCCN(C)C)cc3[N+](=O)[O-])CC2)cc1, the EC50 [3] is reported as 0.454 µM (active) and the EC50 [4] is reported as > 16 µM (not active).
In the case of C=CCNC(=O)c1ccc(-c2nc(-c3ccc(Cl)c(Cl)c3)cs2)cc1, the AC50 [2] is reported as 7.94 µM (inconclusive) and the AC50 ([5]; read-out: AC50) is reported as 28.2 µM (inconclusive).
With COc1ccc(N(C(=O)COc2ccccc2OC)S(=O)(=O)c2ccc(C)cc2)cc1 the AC50 [1] was 4.47 µM (inconclusive).
For CCCn1c(=O)c2c(ncn2C)n(CCC)c1=O, the AC50 [2] was 20 µM (inconclusive).
For COc1ccccc1-c1cc2nc(C)c(CCC(=O)NCc3ccc(F)cc3)c(C)n2n1, the EC50 [3] was 2.06 µM (active) and the EC50 [4] was > 60 µM (not active).
With CCN1CCN(c2ccc(S(=O)(=O)N3CCCCC3)cc2NC(=O)c2ccc(C)o2)CC1 the EC50 [3] was 2.01 µM (active) and the EC50 [4] was > 60 µM (not active).
For Cc1nc2cnc(N3CCNCC3)nc2n(C)c1=O, the AC50 [2] was 15.8 µM (inconclusive) and the AC50 [5] was “inconclusive”.
For Cc1nc2cnc(N3CCNCC3)nc2n(Cc2ccc(F)cc2)c1=O, the AC50 [6] was 25.1 µM (inconclusive) and the AC50 [5] was “inconclusive”.
With CCN1CCN(Cc2ccc(NC(=O)c3cc(NC(=O)c4cc(-c5ccc(OC)cc5)[nH]n4)cc(OC)c3)cc2C(F)(F)F)CC1 the EC50 [7] was 7.21 µM (active) and the EC50 [8] was 4.15 µM (active).
For Fc1cccc(C[n+]2csc3ccccc32)c1, the EC50 [3] was 1.99 µM (active) and the EC50 [4] was > 60 µM (not active).
With Cc1c(S(=O)(=O)O)ccc(/N=N\c2c(O)c(C(=O)O)cc3ccccc23)c1Cl the AC50 [1] was 5.01 µM (inconclusive).
In the case of O=S(=O)(c1ccc2ccccc2c1)N1CCC(c2nc(-c3ccncc3)no2)CC1, the EC50 [3] is reported as 0.564 µM (active) and the EC50 [4] is reported as > 60 µM (not active).
In the case of CCSc1nnc2n(N)c(=O)c3ccccc3n12, the AC50 [2] is reported as 15.8 µM (inconclusive).
With CC(C)(C)c1ccccc1OCC(=O)Nc1ccccc1C(=O)NCc1cccnc1 the EC50 [3] was 3.61 µM (active) and the EC50 [4] was > 60 µM (not active).
In the case of CN(C)CN1C(=O)S/C(=C2/C(=O)N(CN(C)C)c3ccccc32)C1=O, the AC50 [1] is reported as 0.794 µM (inconclusive).
With CCCS(=O)(=O)N1CCCC(C(=O)N2CCN(c3ccccc3)CC2)C1 (centres undefined) the AC50 [2] was 14.1 µM (inconclusive), the AC50 [1] was 0.00501 µM (inconclusive) and the AC50 [6] was 14.1 µM (inconclusive). The AC50 ([5]; read-out: AC50) was 6.31 µM (inconclusive).
With Cc1ccc(S(=O)(=O)N[C@H](CN)C(=O)O)cc1 the AC50 [5] was “inconclusive”.
In the case of CCOc1c2ccc(C(=O)NCc3ccco3)cc2nn1CC, the AC50 [2] is reported as 31.6 µM (inconclusive) and the AC50 [6] is reported as 10 µM (inconclusive).
For CCN(C(=O)COC(=O)c1cc(-c2ccc3cc(OC)ccc3c2)nc2ccccc12)C1CCS(=O)(=O)C1 (centres undefined), the EC50 [9] was 11 µM (active) and the EC50 [10] was 13.9 µM (active).
In the case of O=c1cnc2cnc(N3CCNCC3)nc2n1Cc1ccc(F)cc1, the AC50 [6] is reported as 20 µM (inconclusive).
In the case of C/C(=N/CCN1CCN(C(=S)Nc2ccccc2)CC1)C1=C(O)CC(C)(C)CC1=O, the AC50 [6] is reported as 28.2 µM (inconclusive).
With COc1cccc(/N=c2\oc3c(C)ncc(CO)c3cc2C(N)=O)c1 the AC50 [6] was 11.2 µM (inconclusive) and the AC50 [5] was “inconclusive”.
With COCc1nc2c([nH]1)c(=O)n(C)c(=O)n2CC(C)C the AC50 [2] was 1.26 µM (inconclusive).
In the case of Cc1nc2cnc(N3CCN(C)CC3)nc2n(CCc2ccccc2)c1=O, the AC50 [2] is reported as 15.8 µM (inconclusive).
In the case of N#C[C@H](Cc1ccc(O)cc1)c1ccc(O)cc1, the AC50 [6] is reported as 39.8 µM (inconclusive) and the AC50 ([5]; read-out: AC50) is reported as 2 µM (inconclusive).
In the case of CC(C)(Oc1ccc(-c2cccc3ccccc23)cc1)C(=O)O, the AC50 [6] is reported as 0.398 µM (inconclusive) and the AC50 [5] is reported as “inconclusive”.
With COc1nnc(OC)c2ccccc12 the AC50 ([5]; read-out: AC50) was 0.0631 µM (inconclusive).
